Measurements as given in patent US4238620A, “Dibenz[b,f]oxepin and dibenzo[b,f]thiepin derivatives, process for preparation thereof, method of using the same, and compositions thereof” (priority 1978, dated 1980).
Like-named read-outs stand apart in the source and are kept apart here.

Tests used:
[1] = tested on: Carrageenin-induced hind paw oedema in rats; test: Carrageenin-induced hind paw oedema in rats (CAR method), acute inflammation; type: in vivo; details: Rattus norvegicus, po, read-out: Anti-inflammatory activity ED50, acute inflammation, CAR
Procedure: (§1) (1) Effect on acute inflammation:
(a) Carrageenin-induced hind paw oedema in rats (CAR method)
The test was carried out according to the method described in Proc. Soc. Exp. Biol. Med., 111, 544 (1962).

[2] = tested on: Ultraviolet-induced erythema in guinea-pigs; test: Ultraviolet-induced erythema in guinea-pigs (UVE method), acute inflammation; type: in vivo; details: Cavia porcellus, po, read-out: Anti-inflammatory activity ED50, acute inflammation, UVE
Procedure: as §1
(b) Ultraviolet-induced erythema in guinea-pigs (UVE method)
The test was carried out according to the method described in Arch. Int. Pharmacodyn. Ther., 116, 261 (1958).

[3] = tested on: adjuvant-induced arthritis in rats; test: Therapeutic activity on adjuvant-induced arthritis in rats (AAT method), subacute and chronic inflammation; type: in vivo; details: Rattus norvegicus, po, read-out: Minimum Effective Dose, subacute and chronic inflammation, AAT*
Procedure: (§2) (2) Effect on subacute and chronic inflammations:
(a) Therapeutic activity on adjuvant-induced arthritis in rats (AAT method)
The test was carried out according to the method described in Brit. J. Pharmacol., 21, 127 (1963) and Japan J. Pharmacol., 23, 58 (1973).

[4] = tested on: Felt pellet-induced granuloma formation in rats; test: Felt pellet-induced granuloma formation in rats (FGF method), subacute and chronic inflammation; type: in vivo; details: Rattus norvegicus, po, read-out: Minimum Effective Dose, subacute and chronic inflammation, FGF*
Procedure: as §2
(b) Felt pellet-induced granuloma formation in rats (FGF method)
The test was carried out according to the method described in J. Amer. Pharm. Assoc., 46, 515 (1957) and Chem. Pharm. Bull., 23, 1446 (1975).

[5] = tested on: AgNO3-induced joint pain in rats; test: AgNO3-induced joint pain in rats (AGP method), analgesic activity; type: in vivo; details: Rattus norvegicus, po, read-out: Analgesic activity ED50, AGP
Procedure: (§3) TEST 2. ANALGESIC ACTIVITY
(a) AgNO3 -induced joint pain in rats (AGP method)
The test was carried out according to the method described in J. Pharmacol. Expt. Ther., 98, 19 (1950)

[6] = tested on: Yeast-induced fever in rats; test: Yeast-induced fever in rats (YEF method), antipyretic activity; type: in vivo; details: Rattus norvegicus, po, read-out: Antipyretic activity ED50, YEF
Procedure: TEST 3. ANTIPYRETIC ACTIVITY
Yeast-induced fever in rats (YEF method)
The test was carried out according to the method described in Arzneim. Forsch., 13, 338 (1963).

[7] = Gastrointestinal ulcer formation in fed rats (ulcerogenicity); type: in vivo; details: rat, in vivo, po, fed rats; read-out: UD50 (50% ulcer forming dose)
Procedure: (§4) TEST 4. ULCEROGENICITY IN GASTROINTESTINAL TRACT
(§5) Gastrointestinal ulcer formation in fed rats
(§6) The test was carried out according to the method described in Science, 170, 183 (1970).

[8] = in vivo; details: rat, po
[9] = tested on: Acetic acid (AcOH)-induced writhing in rats; test: Acetic acid (AcOH)-induced writhing in rats (ACW method), analgesic activity; type: in vivo; details: Rattus norvegicus, po, read-out: Analgesic activity ED50, ACW
Procedure: as §3
(b) Acetic acid (AcOH)-induced writhing in rats (ACW method)
The test was carried out according to the method described in Arzneim. Forsch., 25, 1505 (1975).

[10] = in vivo; details: rat, po; remark: listed apart in the source
Procedure: (§7) (b) Repeated administrations in rats
(§8) Test compounds were orally administered once daily for 5 days, and LD50 -value was calculated from the mortality on the 6th day.

[11] = Overall comparison of anti-inflammatory, analgesic and antipyretic activities (Tests 1 to 3); type: in vivo, rats; guinea-pigs; details: for anti-inflammatory, analgesic and antipyretic activities compared with indomethacin: vs indomethacin (compound 3)
Text: (§9) From these diagrams, the correlation between the pharmacological activity of each compound and its ulcerogenicity and toxicity, i.e. the safety margin of each compound, can be clearly seen. In these Figures, the lines and letters have the following meanings:
(§10) The following conclusions can be drawn from Tables I to III and FIGS. 1 and 2. In the following description, the therapeutic index means LD50 /ED50 (or MED), and the safety index means UD50 /ED50 (or MED). The safety margin of a given compound is broader when it has larger therapeutic and or safety indices.

[12] = type: in vivo; details: for therapeutic index compared with indomethacin: vs indomethacin
Text: In the following description, the therapeutic index means LD50 /ED50 (or MED), and the safety index means UD50 /ED50 (or MED).

[13] = Safety index (UD50/ED50 or MED), separation of activity from ulcerogenicity; type: in vivo; details: for separation of anti-inflammatory, analgesic and antipyretic activities from ulcerogenicity: FIGS. 1 and 2, vs indomethacin
Text: as §9, §10

[14] = tested on: rats; test: Overall comparison of lethal toxicity (Test 5); type: in vivo; details: for toxicity compared with indomethacin (in words): vs indomethacin
Procedure: (a) Single administration in rats
as §7, §8

[15] = tested on: Gastrointestinal ulcer formation in fed rats; test: Gastrointestinal ulcer formation in fed rats (ulcerogenicity); type: in vivo; details: fraction of that of compound 2
Procedure: as §4, §5, §6

[16] = rats, single administration, 7th day, read-out: LD50 Single
[17] = rats, once daily for 5 days, mortality on 6th day, read-out: LD50 Repeated

Cc1ccc2c(c1)CC(=O)c1cc(CC(=O)OCCOCCO)ccc1O2 [compound F, 2-(2-Hydroxyethoxy)ethyl 8-methyl-10,11-dihydro-11-oxodibenz[b,f]oxepin-2-acetate]
ED50 ([1]; rats, CAR method): 7.95 mg/kg

CC(C(=O)O)c1ccc2c(c1)C(=O)Cc1ccccc1O2 (stereo not drawn) [compound 1, 2-(10,11-dihydro-11-oxodibenz[b,f]oxepin-2-yl)propionic acid, reference compound]
ED50 [1]: 3.65 mg/kg | ED50 [2]: 0.93 mg/kg | minimal effective dose [3]: 1 mg/kg/day | minimal effective dose [4]: 3 mg/kg/day | ED50 [5]: 5.8 mg/kg | ED50 [6]: 0.062 mg/kg | TD50 [7]: 4.85 mg/kg | LD50 at 168 h [8, 16]: 106 mg/kg

Cc1ccc2c(c1)CC(=O)c1cc(C(C)C(=O)O)ccc1O2 (racemic) [compound A, dl-2-(8-Methyl-10,11-dihydro-11-oxodibenz[b,f]oxepin-2-yl)propionic acid]
ED50 [1]: 3.38 mg/kg | ED50 [2]: 0.3 mg/kg | minimal effective dose [3]: 0.2 mg/kg/day | minimal effective dose [4]: 2 mg/kg/day | ED50 [5]: 2.6 mg/kg | ED50 [9]: 0.28 mg/kg | ED50 [6]: 0.021 mg/kg | TD50 [7]: 2.97 mg/kg | LD50 at 168 h [8, 16]: 147 mg/kg | LD50 at 144 h [10, 17]: > 12 mg/kg | pharmacological activities compared with compound 1 ([11]; vs compound 1): stronger pharmacological activities in all the methods tested | pharmacological potency and/or safety margin compared with compound 1 ([11]; vs compound 1): superior to compound 1 not only in pharmacological activities but also in safety margin | anti-inflammatory, analgesic and antipyretic activities compared with indomethacin [11]: equivalent or superior to those of indomethacin | average therapeutic index relative to compound 1 ([12]; LD50/ED50 (or MED), vs compound 1): about 3.7 times | therapeutic index compared with indomethacin [12]: far larger therapeutic indices than indomethacin | separation of anti-inflammatory, analgesic and antipyretic activities from ulcerogenicity [13]: more separated from ulcerogenicity in the gastrointestinal tract than in indomethacin | average safety index relative to compound 1 ([13]; UD50/ED50 (or MED), vs compound 1): about 1.6 times | toxicity relative to compound 1 ([14]; vs compound 1): less toxic than compound 1 | toxicity compared with indomethacin (in words) [14]: far weaker than those of indomethacin

COc1ccc2c(c1)c(CC(=O)O)c(C)n2C(=O)c1ccc(Cl)cc1 [compound 3, indomethacin, reference compound]
ED50 [1]: 3.3 mg/kg | ED50 [2]: 9.12 mg/kg | minimal effective dose [3]: 0.2 to 0.4 mg/kg/day | minimal effective dose [4]: 2 mg/kg/day | ED50 [5]: 4.1 mg/kg | ED50 [9]: 0.44 mg/kg | ED50 [6]: 0.223 mg/kg | TD50 [7]: 3.95 mg/kg | LD50 at 168 h [8, 16]: 18.5 mg/kg | LD50 at 144 h [10, 17]: ~5 mg/kg

CC(C(=O)O)c1ccc2c(c1)C(=O)Cc1ccccc1S2 (stereo not drawn) [compound 2, 2-(10,11-dihydro-11-oxodibenzo[b,f]thiepin-2-yl)propionic acid, reference compound]
ED50 [1]: 1.2 mg/kg | ED50 [2]: 0.98 mg/kg | minimal effective dose [3]: < 0.1 mg/kg/day | minimal effective dose [4]: 0.25 mg/kg/day | ED50 [5]: 1.66 mg/kg | ED50 [9]: 1.16 mg/kg | ED50 [6]: 0.022 mg/kg | TD50 [7]: 0.62 mg/kg | LD50 at 144 h [10, 17]: 2.15 mg/kg

Cc1ccc2c(c1)CC(=O)c1cc(C(C)C(=O)OCCOCCO)ccc1S2 (racemic) [compound G, 2-(2-Hydroxyethoxy)ethyl dl-2-(8-methyl-10,11-dihydro-11-oxodibenzo[b,f]thiepin-2-yl)propionate]
ED50 [1]: 5.94 mg/kg | ED50 [2]: 2.52 mg/kg | minimal effective dose [3]: ≤ 0.2 mg/kg/day | ED50 [5]: 0.96 mg/kg | ED50 [9]: 0.33 mg/kg | ED50 [6]: 0.041 mg/kg | TD50 [7]: 2.94 mg/kg | ulcerogenicity relative to compound 2 [15]: about 1/5 | LD50 at 144 h [10, 17]: > 16 mg/kg | analgesic activity compared with compounds 2 and C ([11]; AGP, ACW, vs compounds 2 and C): stronger than those of compounds 2 and C | antiinflammatory and antipyretic activities compared with compounds 2 and C ([11]; vs compounds 2 and C): weaker than those of compounds 2 and C | anti-inflammatory, analgesic and antipyretic activities compared with indomethacin [11]: equivalent or superior to those of indomethacin | average therapeutic index relative to compound 2 ([12]; LD50/ED50 (or MED), vs compound 2): more than 8 times | breadth of safety margin compared with compound 2 ([12]; safety margin, vs compound 2): far superior to compound 2 | therapeutic index compared with indomethacin [12]: far larger therapeutic indices than indomethacin | separation of anti-inflammatory, analgesic and antipyretic activities from ulcerogenicity [13]: more separated from ulcerogenicity in the gastrointestinal tract than in indomethacin | average safety index relative to compound 2 ([13]; UD50/ED50 (or MED), vs compound 2): about 5 times | toxicity relative to compound 2 ([14]; fraction of that of compound 2): less than 1/7 | toxicity compared with indomethacin (in words) [14]: far weaker than those of indomethacin

Cc1ccc2c(c1)CC(=O)c1cc(CC(=O)O)ccc1O2 [compound B, 8-Methyl-10,11-dihydro-11-oxodibenz[b,f]oxepin-2-acetic acid]
ED50 ([1]; rats, CAR method): 2.2 mg/kg | ED50 ([2]; guinea-pigs, UVE method): 4.48 mg/kg | minimal effective dose ([4]; rats, FGF method): 20 mg/kg/day | ED50 ([6]; rats, YEF method): 0.357 mg/kg | activity on acute inflammation and fever compared with indomethacin ([11]; acute inflammation and fever, vs indomethacin): nearly comparable to that of indomethacin

CC(C(=O)OCCOCCO)c1ccc2c(c1)C(=O)Cc1ccccc1O2 (racemic) [compound D, 2-(2-Hydroxyethoxy)ethyl dl-2-(10,11-dihydro-11-oxodibenz[b,f]oxepin-2-yl)propionate]
ED50 ([1]; rats, CAR method): 2.87 mg/kg | ED50 ([2]; guinea-pigs, UVE method): 1.5 mg/kg | minimal effective dose ([3]; rats, AAT method): 1 mg/kg/day | minimal effective dose ([4]; rats, FGF method): 6 mg/kg/day | ED50 ([5]; rats, AGP method): 4.6 mg/kg | ED50 ([9]; rats, ACW method): 1.06 mg/kg | ED50 ([6]; rats, YEF method): 0.112 mg/kg | LD50 at 168 h [8]: 260 mg/kg | LD50 at 144 h [10]: > 24 mg/kg | activity on subacute and chronic inflammation compared with indomethacin ([11]; AAT and FGF, vs indomethacin): inferior to that of indomethacin | anti-inflammatory (acute), analgesic and antipyretic activities compared with indomethacin ([11]; acute inflammation, analgesic, antipyretic, vs indomethacin): almost equivalent to those of indomethacin | pharmacological activities compared with compound 1 ([11]; vs compound 1): comparable to those of compound 1 | toxicity compared with indomethacin (in words) [14]: far weaker than those of indomethacin
